Reference: patent publication US7737120B2 (Aicuris GmbH & Co. KG, priority 2004, dated 2010)
“Also recorded” adds a separate entry of the source.

Legend:
[1] = system: papain; experiment: papain (1:50) in cleavage buffer (0.1 M sodium phosphate/10 mM cysteine, 2 mM EDTA pH 6.5) with methanol; conditions: 37° C., up to 24 h
[2] = system: bromelain; experiment: bromelain (1:50) in cleavage buffer (0.1 M sodium phosphate, 10 mM cysteine, 2 mM EDTA pH 6.5) with methanol; conditions: 37° C., up to 24 h
[3] = system: chymotrypsin; experiment: preparative cleavage, chymotrypsin (1:25) in cleavage buffer (0.1 M ammonium hydrogencarbonate/0.5 M urea pH 8) with methanol; conditions: 37° C., up to about 70 min
[4] = system: chymotrypsin; experiment: chymotrypsin (1:50) in cleavage buffer (0.1 M ammonium hydrogencarbonate/0.5 M urea pH 8) with methanol; conditions: 37° C., up to 24 h
[5] = system: subtilisin; experiment: subtilisin (1:50) in cleavage buffer (0.1 M ammonium hydrogencarbonate/0.5 M urea pH 8) with methanol; conditions: 37° C., up to 24 h
[6] = system: thermolysin; experiment: thermolysin (1:50) in cleavage buffer (0.1 M ammonium hydrogencarbonate/0.5 M urea pH 8) with methanol; conditions: 37° C., up to 24 h
[7] = system: Gram-positive aerobic and anaerobic bacteria; conditions: statement in words, background section; cited from earlier work
[8] = system: pepsin, trypsin, chymotrypsin and mucosal peptidase; conditions: cited from earlier work
[9] = system: thermolysin; experiment: thermolysin (1:50) in cleavage buffer (0.1 M tris(hydroxymethyl)aminomethane/5 mM calcium chloride pH 7.45) with methanol; conditions: 37° C., up to 24 h
[10] = system: proteinase K; experiment: proteinase K (1:50) in cleavage buffer (0.1 M sodium tetraborate pH 9) with methanol; conditions: 37° C., up to 24 h
[11] = system: pepsin; experiment: pepsin; conditions: cited from earlier work
[12] = the buffer used (enzymatic digestion experiments)

Substance	fragment found [1]	fragment found [2]	fragment found [3]	fragment found [4]	fragment found [5]	fragment found [6]	activity against Gram-positive aerobic and anaerobic bacteria [7]	enzymatic digestion [8]	fragment found [9]	fragment found [10]	not cleaved [11]	fragment found [12]
D-Leu-Leu-Ala(3-cyclohexyl)-Leu(OH)-Leu-D-Arg-Ile-allo-Thr-Gly-Asn(OH)-Ser	Peptide 5-11 (Leu-Arg-Ile-(allo)Thr-Gly-Asn(OH)-Ser); also recorded: Peptide 5-9 (Leu-Arg-Ile-(allo)Thr-Gly); also recorded: Peptide 10-11 (Asn(OH)-Ser); also recorded: Peptide 1-4 (Leu-Leu-PTHAla(3-cyclohexyl)*-Leu(OH))	Peptide 1-9 (Leu-Leu-PTHAla(3-cyclohexyl)*-Leu(OH)-Leu-Arg-Ile-(allo)Thr-Gly); also recorded: Peptide 10-11 (Asn(OH)-Ser)	fragment 1-3 (LL(3-cyclohexyl)A); also recorded: fragment 4-11	Peptide 4-11 (Leu(OH)-Leu-Arg-Ile-(allo)Thr-Gly-Asn(OH)-Ser); also recorded: Peptide 1-3 (Leu-Leu-PTHAla(3-cyclohexyl)*); also recorded: deamidated form (1-11); also recorded: deamidated form (4-11)	Peptide 4-11 (Leu(OH)-Leu-Arg-Ile-(allo)Thr-Gly-Asn(OH)-Ser); also recorded: Peptide 1-3 (Leu-Leu-PTHAla(3-cyclohexyl)*)	Peptide 1-2 (Leu-Leu)	–	–	–	–	–	–
D-Leucyl-N-1-{(3S,6S,12S,15S,18R,21S,24S,27S,28R)-6-[(1S)-2-amino-1-hydroxy-2-oxoethyl-]18-(3-{[amino(imino)methyl]amino}propyl)-12-[(1S)-1-hydroxyethyl]-3-(hydroxymethyl)-24-[(1R)-1-hydroxy-2-methylpropyl]-21-isobutyl-15-[(1S)-1-methylpropyl]-2,5,8,11,14,17,20,23,26-nonaoxo-28-phenyl-1-oxa-4,7,10,13,16,19,22,25-octaazacyclo-octacosan-27-yl}-L-leucinamide Bistrifluoroacetate [Lysobactin]	–	–	–	–	–	–	strong activity	no (such as in the case of pepsin, for example) or only inadequate enzymatic digestion	–	–	–	–
D-Leu-Leu-Phe-Leu(OH)-Leu-D-Arg-Ile-allo-Thr-Gly-Asn(OH)-Ser	Peptide 5-11 (Leu-Arg-Ile-(allo)Thr-Gly-Asn(OH)-Ser); also recorded: Peptide 5-9 (Leu-Arg-Ile-(allo)Thr-Gly); also recorded: Peptide 10-11 (Asn(OH)-Ser); also recorded: Peptide 1-4 (Leu-Leu-Phe-Leu(OH))	Peptide 1-9 (Leu-Leu-Phe-Leu(OH)-Leu-Arg-Ile-(allo)Thr-Gly); also recorded: Peptide 10-11 (Asn(OH)-Ser)	fragment 4-11; also recorded: fragment 1-3 (LLF)	Peptide 4-11 (Leu(OH)-Leu-Arg-Ile-(allo)Thr-Gly-Asn(OH)-Ser); also recorded: Peptide 1-3 (Leu-Leu-Phe)	Peptide 4-11 (Leu(OH)-Leu-Arg-Ile-(allo)Thr-Gly-Asn(OH)-Ser); also recorded: Peptide 1-3 (Leu-Leu-Phe)	–	–	–	Peptide 3-11 (Phe-Leu(OH)-Leu-Arg-Ile-(allo)Thr-Gly-Asn(OH)-Ser); also recorded: Peptide 1-2 (Leu-Leu)	Peptide 4-11 (Leu(OH)-Leu-Arg-Ile-(allo)Thr-Gly-Asn(OH)-Ser); also recorded: Peptide 5-11 (Leu-Arg-Ile-(allo)Thr-Gly-Asn(OH)-Ser)	–	–
D-Leucyl-L-leucyl-[(3R)-3-hydroxy-L-phenylalanyl)]-[(3R)-3-hydroxy-L-leucyl]-L-leucyl-D-arginyl-L-isoleucyl-L-allothreonyl-glycyl-[(3S)-3-hydroxy-L-asparaginyl]-L-serine-C1^0.11-O3^0.3-lactone bistrifluoroacetate	–	–	–	–	–	–	–	–	–	–	no enzymatic digestion (in the case of pepsin)	open-chain lysobactin; also recorded: β-hydroxyaspartate unit
